# Experimental data as given in US20020037872A1, “N6 heterocyclic 5' modified adenosine derivatives” (CV Therapeutics, Inc., priority 1999, published 2002).
# pKi: −log10 of the molar value.
# Key:
# A1 adenosine receptor [1] = target: T1, A1 adenosine receptor (Mesocricetus auratus, UniProt A0A1U8BVR4); experiment: [35S]GTPγS binding assay, A1-agonist stimulated; type: biochemical, hamster; conditions: agonist stimulated [35S]GTPγS binding, CPA = 100%
# T1 construct: endogenous in cells; host or cells: DDT1 (DDT1 MF-2) hamster vas deferens smooth muscle cells
# T1 sequence (A0A1U8BVR4 1-326): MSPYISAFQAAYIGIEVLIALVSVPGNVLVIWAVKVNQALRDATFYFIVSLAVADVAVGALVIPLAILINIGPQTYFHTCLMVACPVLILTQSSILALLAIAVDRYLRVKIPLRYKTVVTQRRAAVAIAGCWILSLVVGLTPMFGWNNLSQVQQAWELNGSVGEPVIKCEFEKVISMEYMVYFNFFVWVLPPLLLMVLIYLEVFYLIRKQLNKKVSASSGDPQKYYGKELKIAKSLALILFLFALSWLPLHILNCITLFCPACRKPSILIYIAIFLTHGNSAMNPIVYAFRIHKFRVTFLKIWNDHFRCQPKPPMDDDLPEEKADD
# Protocol: (§1) Attached cells were washed twice with HBSS (2×10 ml), scraped free of the plate with the aid of a rubber policeman in 5 ml of 50 mM Tris-HCI buffer pH 7.4 at 4° C. and the suspension homogenized for 10 s. The suspension was then centrifuged at 27,000×g for 10 min. The pellet was resuspended in homogenization buffer by vortexing and centrifuged as described above. The final pellet was resuspended in 1 vol of 50 mM Tris-HCI buffer pH 7.4 containing 5 mM MgCl2 for A1 AdoR assays. For the [^35S]GTPγS binding assay the final pellet was resuspended in 50 mM Tris-HCI pH 7.4 containing 5 mM MgCl2, 100 mM NaCl and 1 mM dithiothreitol. This membrane suspension was then placed in liquid nitrogen for 10 min, thawed and used for assays. The protein content was determined by the method of Bradford (1976) using bovine serum albumin as standard.
# A1-agonist stimulated [^35S]GTPγS binding was determined by a modification of the method described by Giersckik et al. (1991) and Lorenzen et al. (1993). […] Nonspecific binding was determined by the addition of 10 μM GTPγS. […] Previous reports have shown that agonist stimulated [^35S]GTPγS binding was dependent on the presence of GDP (Gierschik et al., 1991; Lorenzen et al., 1993; Traynor & Nahorski, 1995). […] In saturation experiments, 0.5 nM [^35S]GTPγS was incubated with 0.5-1000 nM GTPγS. At the end of the incubation, each suspension was filtered and the retained radioactivity determined as described above.
# A1 adenosine receptor [2] = target: T1, A1 adenosine receptor; experiment: cAMP assay (SPA) in DDT1 cells, forskolin-induced cAMP; type: cell-based, hamster; conditions: normalized to full agonist CPA, 5 μM forskolin, 50 μM rolipram; for Emax: 10 min
# Protocol: A scintillation proximity assay (SPA) using rabbit antibodies directed at cAMP using an added tracer of adenosine 3′,5′-cyclic phosphoric acid 2′-O-succinyl-3-[^125I]iodotyrosine methyl ester and fluoromicrospheres containing anti-rabbit specific antibodies as described by Amersham Pharmacia Biotech (Biotrak cellular communication assays). Briefly, DDT1 cells were cultured in clear bottomed 96 well microtiter plates with opaque wells at concentrations between 10^4 to 10^6 cells per well in 40 μl of HBSS at 37° C. (5% CO2 and 95% humidity). The partial or full A1 agonists (5 μl) of this invention were incubated at various concentrations with the DDT1 cells in the presence of rolipram (50 μM), and 5 μM forskolin for 10 min at 37° C. The cells were immediately lysed by treatment 5 μl of 10% dodecyltrirnethylammonium bromide followed by shaking using rnicroplate shaker. After incubation of the plate for 5 minutes, an imnuunoreagent solution (150 μl containing equal volumes of tracer, antiserum, and SPA fluorospheres) was added to each well followed by sealing the plate. After 15-20 h at 23° C., the amount of bound [^125] cAM to the fluoromicrospheres was determined by counting in a microtitre plate scintillation counter for 2 minutes. Comparison of counts with standard curves generated for cAMP using a similar protocol afforded the cAMP present after cell lysis.
# A1 receptor = target: T2, A1 receptor (Mesocricetus auratus, UniProt A0A1U8BVR4); experiment: Competitive binding assay, DDT1 cell membranes, [3H]CCPA; design: species or system hamster; conditions: [3H]CCPA 2 nM, DDT1 cell membranes; read-out: Ki-DDT1 cell membrane
# T2 construct: endogenous in cells; host or cells: DDT1 (DDT1 MF-2) hamster vas deferens smooth muscle cells
# T2 sequence (A0A1U8BVR4 1-326): T1 sequence (A0A1U8BVR4 1-326)
# Protocol: Cells were subcultured twice weekly by dispersion in Hank's Balanced Salt Solution (HBSS) without the divalent cations and containing 1 mM EDTA. The cells were then seeded in growth medium at a density of 1.2×10^5 cells per plate and experiments were performed 4 days later at approximately one day preconfluence.
# as §1, with “assays.” for “assays. The protein content was determined by the method of Bradford (1976) using bovine serum albumin as standard.”
# Competitive Binding Assay Pig striatum were prepared by homogenation in 50 mM Tris buffer (5× volume of tissue mass pH=7.4). After centrifilgation at 19,000 rpm for 25 minutes at 4° C., the supernatant was discarded, and the process was repeated twice. Compositions of this invention were assayed to determine their affinity for the A1 receptor in a pig striatum membrane prep or a DDT, membrane prep. Briefly, 0.2 mg of pig striatal membranes or DDT, cell membranes were treated with adenosine deaminase and 50 mM Tris buffer (pH=7.4) followed by mixing. To the pig membranes was added 2 μL of serially diluted DMSO stock solution of the compounds of this invention at concentrations ranging from 100 microM to 10 nM. The control received 2 microL of DMSO alone, then the antagonist [^3H] 8-cyclopentylxanthine (CPX) for pig striatum or the agonist [^3H] 2-chloro-6-cyclopentyladenosine (CCPA) for DDT, membranes in Tris buffer (50 mnM, pH of 7.4) was added to achieve a final concentration of 2 nM. After incubation at 23 C for 2 h, the solutions were filtered using a membrane harvester using multiple washing of the membranes (3×). The filter disks were counted in scintillation cocktail affording the amount of displacement of triated CPX or by the competitive binding compositions of this invention. In the case of the DDT1 cell membranes, some of the determinations of binding affinity (Ki) were made in the presence of Gpp(NH)p as noted in Table 1 (note: Gpp(NH)p shifts the receptor to a low affinity form). Greater than a 5 point curve was used to generate Ki's and the number of experiments is indicated in the column marked in Table 1 below.
SMILES,Emax (A1 adenosine receptor [1]) [%],Emax (A1 adenosine receptor [2]) [%],pKi (A1 receptor),GTPγS (A1 adenosine receptor [1]) [%],cAMP (A1 adenosine receptor [2]) [%]
"O=C(NC1CCC1)OCC1OC(n2cnc3c(N[C@@H]4CCOC4)ncnc32)C(O)C1O (stereo partly drawn) [Compound 39, [(5-{6[((3R)oxolan-3-yl)amino}purin-9-yl}(3S,2R,4R,5R)3,4-dihydroxyoxolan-2-yl)methoxy]-N-cyclobutylcarboxaniide]",67,45,6.35,–,–
"O=C(N[C@H]1CCC[C@@H]1O)OC[C@H]1O[C@@H](n2cnc3c(N[C@@H]4CCOC4)ncnc32)[C@H](O)[C@@H]1O [Compound 61, {(5-{6[((3R)oxolan-3-yl)amino]purin-9-yl}(3S,2R,4R,5R)-3,4dihydroxyoxolan-2-yl)methoxy]-N-((1S,2S)-2-hydroxycyclopentyl)carboxamide]",59,53,5.80,–,–
COC(=O)CNC(=O)OCC1OC(n2cnc3c(N[C@@H]4CCOC4)ncnc32)C(O)C1O (stereo partly drawn) [Compound 43],53,28,5.77,–,–
O=C(NC1CCCC1O)OCC1OC(n2cnc3c(N[C@@H]4CCOC4)ncnc32)C(O)C1O (stereo partly drawn) [Compound 62],42,23,5.66,–,–
CCOC(=O)CCNC(=O)OCC1OC(n2cnc3c(N[C@@H]4CCOC4)ncnc32)C(O)C1O (stereo partly drawn) [Compound 42],47,16,5.50,–,–
"CCOC(=O)C1C2C=CC(C2)C1NC(=O)OCC1OC(n2cnc3c(N[C@@H]4CCOC4)ncnc32)C(O)C1O (stereo partly drawn) [Compound 35, Ethyl 3-{[5-{6-[(3R)oxolan-3-yl)amiinolpurin-9-yl}(3S,2R,4R,5R)-3,4-dihydroxyoxolan-2-yl)methoxylcarbonylamino)(2S,3R)bicylo[2.2.]hept-5-ene2-carboxylate]",52,-4,5.99,–,–
OC1C(COC(=S)NC2CCCC2OCc2ccccc2)OC(n2cnc3c(N[C@@H]4CCOC4)ncnc32)C1O (stereo partly drawn) [Compound 56],–,–,5.91,52,43
COC(=O)C1CCCC1NC(=O)OCC1OC(n2cnc3c(N[C@@H]4CCOC4)ncnc32)C(O)C1O (stereo partly drawn) [Compound 34],17,-20,5.46,–,–
"CCOC(=O)C1C2CCC(C2)C1NC(=O)OCC1OC(n2cnc3c(N[C@@H]4CCOC4)ncnc32)C(O)C1O (stereo partly drawn) [Compound 36, Ethyl 3-{[5-{6-[(3R)oxolan-3-yl)aminolpurin-9-yl}(3S,2R,4R,5R)-3,4-dihydroxyoxolan-2-yl)methoxylcarbonylamino}(2S,3R)bicylo[2.2.1]heptane-2-carboxylate]",41,10,5.82,–,–
"C=CCNC(=O)OC[C@H]1O[C@@H](n2cnc3c(N[C@@H]4CCOC4)ncnc32)[C@H](O)[C@@H]1O [Compound 41, [(5-{6[((3R)oxolan-3-yl)amino]purin-9-yl}(3S, 2R, 4R, 5R)-3,4-dihydroxyoxolan-2-yl)methoxy]-N-prop2-enylcarboxamide]",48,17,6.18,–,–
O=C(NC1CCCC1OCc1ccccc1)OCC1OC(n2cnc3c(N[C@@H]4CCOC4)ncnc32)C(O)C1O (stereo partly drawn) [Compound 37],–,–,5.37,30,−6
